Data: patent US20140328771A1, “METHOD FOR PRODUCING 3-MENTHOXY PROPANOL AND COMPOSITIONS FOR IMPARTING COOLING SENSATION” (Takasago International Corporation, priority 2011, published 2014)

Test: Oral sensory evaluation of 50-ppm aqueous solutions by ten special panelists
Assay type: in vivo, human
Details: 50-ppm aqueous solution
Description: Using 3-1-menthoxy-1-propanol (1) obtained in Example 1, the mixture (2) of 3-1-menthoxy-1-propanol and 1-1-menthoxy-2-propanol at a weight ratio of 93:7 obtained in Example 2, and 1-1-menthoxy-2-propanol (3) obtained in Example 1, 50-ppm aqueous solutions were prepared.
The three 50-ppm aqueous solutions were subjected to oral sensory evaluation by ten special panelists with five or more years of experience.

SMILES: CC1CCC(C(C)C)C(OCCCO)C1 (centres unmarked) [(1), 3-1-menthoxy-1-propanol]
- refreshing sensation (all the ten panelists): marked refreshing sensation
- strength and persistence of refreshing sensation (seven of the ten panelists): stronger and long-lasting refreshing sensation
